From US9695163B2, “Thiazole orexin receptor antagonists” (MERCK SHARP & DOHME CORP., priority 2013, dated 2017)

Key:
[1] = target: human orexin-1 receptor (hOX1R) (Homo sapiens (Human), UniProt O43613); assay: FLIPR Ca2+ Flux Assay, CHO cells expressing human orexin-1 receptor; format: cell-based; conditions: agonist Ala-6,12 human orexin-A 70 pM
Text: The utility of the compounds in accordance with the present invention as orexin receptor OX1R and/or OX2R antagonists may be readily determined without undue experimentation by methodology well known in the art, including the “FLIPR Ca^2+ Flux Assay” (Okumura et al., Biochem. Biophys. Res. Comm. 2001, 280:976-981). Briefly, for intracellular calcium measurements, Chinese hamster ovary (CHO) cells expressing the orexin-1 receptor (e.g., rat or human) or the orexin-2 receptor (e.g., rat or human), are grown in Iscove's modified DMEM containing 2 mM L-glutamine, […], 1% hypoxanthine-thymidine supplement, 100 U/ml penicillin, 100 μg/ml streptomycin and 10% heat-inactivated fetal calf serum (FCS). The cells are seeded at approximately 20,000 cells per well into 384-well clear bottom sterile plates coated with poly-D-lysine. The seeded plates are incubated overnight at 37° C. and 5% CO2. Human ala-6,12 orexin-A can be used as the agonist and prepared as a 1 mM stock solution in 1% bovine serum albumin (BSA) and diluted in assay buffer (HBSS containing 20 mM HEPES, 0.1% BSA and 2.5 mM probenecid, pH7.4) for use in the assay at a final concentration of 70 pM. Test compounds are prepared as 10 mM stock solution in DMSO, then diluted in 384-well plates, first in DMSO, then in assay buffer. On the day of the assay, cells are washed 3 times with 100 μl assay buffer and then incubated for 60 minutes (37° C., 5% CO2) in 60 μl assay buffer containing 1 μM Fluo-4 AM ester, 0.02% pluronic acid, and 1% BSA. The dye loading solution is then aspirated and cells are washed 3 times with 100 μl assay buffer. 30 μl of that same buffer is left in each well. Within the Fluorescent Imaging Plate Reader (FLIPR, Molecular Devices), test compounds are added to the plate in a volume of 25 μl, incubated for 5 minutes, and then 25 μl of agonist is added. Fluorescence is measured for each well at 1 second intervals for 5 minutes, and the height of each fluorescence peak is compared to the height of the fluorescence peak induced by 70 pM of agonist ala-6,12 orexin-A with buffer in place of test compound. IC50 value for the test compound is determined to be the concentration of compound needed to inhibit 50% of the agonist response. Alternatively, compound potency can be assessed using a radioligand binding assay (described in Bergman et. al., Bioorg. Med. Chem. Lett. 2008, 18:1425-1430) in which the inhibition constant (Ki) is determined in membranes prepared from CHO cells expressing either the OX1 or OX2 receptor. The intrinsic orexin receptor antagonist activity of a compound of the present invention may be determined by these assays.

[2] = target: human orexin-2 receptor (hOX2R) (Homo sapiens (Human), UniProt O43614); assay: FLIPR Ca2+ Flux Assay, CHO cells expressing human orexin-2 receptor; format: cell-based; conditions: agonist Ala-6,12 human orexin-A 70 pM
Protocol: Briefly, for intracellular calcium measurements, Chinese hamster ovary (CHO) cells expressing the orexin-1 receptor (e.g., rat or human) or the orexin-2 receptor (e.g., rat or human), are grown in Iscove's modified DMEM containing 2 mM L-glutamine, […], 1% hypoxanthine-thymidine supplement, 100 U/ml penicillin, 100 μg/ml streptomycin and 10% heat-inactivated fetal calf serum (FCS). The cells are seeded at approximately 20,000 cells per well into 384-well clear bottom sterile plates coated with poly-D-lysine. The seeded plates are incubated overnight at 37° C. and 5% CO2. Human ala-6,12 orexin-A can be used as the agonist and prepared as a 1 mM stock solution in 1% bovine serum albumin (BSA) and diluted in assay buffer (HBSS containing 20 mM HEPES, 0.1% BSA and 2.5 mM probenecid, pH7.4) for use in the assay at a final concentration of 70 pM. Test compounds are prepared as 10 mM stock solution in DMSO, then diluted in 384-well plates, first in DMSO, then in assay buffer. On the day of the assay, cells are washed 3 times with 100 μl assay buffer and then incubated for 60 minutes (37° C., 5% CO2) in 60 μl assay buffer containing 1 μM Fluo-4 AM ester, 0.02% pluronic acid, and 1% BSA. The dye loading solution is then aspirated and cells are washed 3 times with 100 μl assay buffer. 30 μl of that same buffer is left in each well. Within the Fluorescent Imaging Plate Reader (FLIPR, Molecular Devices), test compounds are added to the plate in a volume of 25 μl, incubated for 5 minutes, and then 25 μl of agonist is added. Fluorescence is measured for each well at 1 second intervals for 5 minutes, and the height of each fluorescence peak is compared to the height of the fluorescence peak induced by 70 pM of agonist ala-6,12 orexin-A with buffer in place of test compound. IC50 value for the test compound is determined to be the concentration of compound needed to inhibit 50% of the agonist response. Alternatively, compound potency can be assessed using a radioligand binding assay (described in Bergman et. al., Bioorg. Med. Chem. Lett. 2008, 18:1425-1430) in which the inhibition constant (Ki) is determined in membranes prepared from CHO cells expressing either the OX1 or OX2 receptor. The intrinsic orexin receptor antagonist activity of a compound of the present invention may be determined by these assays. […]

Sequence of human orexin-1 receptor (hOX1R) (O43613 whole entry): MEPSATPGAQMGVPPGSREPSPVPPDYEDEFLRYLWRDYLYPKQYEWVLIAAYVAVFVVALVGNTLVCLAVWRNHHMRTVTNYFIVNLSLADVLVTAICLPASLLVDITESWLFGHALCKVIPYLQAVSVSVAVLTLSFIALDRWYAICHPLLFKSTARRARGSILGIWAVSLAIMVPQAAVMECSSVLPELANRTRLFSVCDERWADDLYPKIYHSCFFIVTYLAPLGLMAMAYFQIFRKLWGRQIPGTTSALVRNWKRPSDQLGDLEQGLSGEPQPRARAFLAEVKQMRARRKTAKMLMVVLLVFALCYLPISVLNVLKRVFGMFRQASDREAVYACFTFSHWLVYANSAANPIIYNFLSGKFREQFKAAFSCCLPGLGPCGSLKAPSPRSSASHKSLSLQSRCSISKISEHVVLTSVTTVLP
Sequence of human orexin-2 receptor (hOX2R) (O43614 whole entry): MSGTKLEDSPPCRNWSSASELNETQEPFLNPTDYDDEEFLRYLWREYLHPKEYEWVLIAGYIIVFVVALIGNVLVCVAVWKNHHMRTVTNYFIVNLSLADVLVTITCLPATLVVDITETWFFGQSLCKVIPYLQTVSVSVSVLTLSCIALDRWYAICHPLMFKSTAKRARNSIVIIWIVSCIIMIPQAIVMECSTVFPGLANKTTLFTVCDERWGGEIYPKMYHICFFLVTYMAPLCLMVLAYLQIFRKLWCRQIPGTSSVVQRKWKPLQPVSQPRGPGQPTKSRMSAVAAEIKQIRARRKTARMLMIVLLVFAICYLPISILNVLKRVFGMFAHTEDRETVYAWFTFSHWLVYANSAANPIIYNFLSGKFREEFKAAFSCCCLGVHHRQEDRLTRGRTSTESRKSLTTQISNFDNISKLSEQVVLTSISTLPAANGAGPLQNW

| Compound | IC50 [1] | IC50 [2] |
| --- | --- | --- |
| C[C@@H]1CC[C@@H](c2ncc(C(C)(C)O)s2)CN1C(=O)c1ccccc1-n1nccn1 [Example 2, (2-(2H-1,2,3-Triazol-2-yl)phenyl)((2R,5R)-5-(5-(2-hydroxypropan-2-yl)thiazol-2-yl)-2-methylpiperidin-1-yl)methanone] | > 10000 nM | 67 nM |
| C[C@@H]1CC[C@@H](c2csc(C(C)(C)O)n2)CN1C(=O)c1ccc(F)cc1-n1nccn1 [Example 38, (4-Fluoro-2-(2H-1,2,3-triazol-2-yl)phenyl)((2R,5R)-5-(2-(2-hydroxypropan-2-yl)thiazol-4-yl)-2-methylpiperidin-1-yl)methanone] | 2050 nM | 14 nM |
| COC(=O)c1ccccc1C(=O)N1C[C@H](c2nc(C(C)(C)O)cs2)CC[C@H]1C [Example 12, Methyl 2-((2R,5R)-5-(4-(2-hydroxypropan-2-yl)thiazol-2-yl)-2-methylpiperidine-1-carbonyl)benzoate] | > 10000 nM | 44 nM |
| C[C@@H]1CC[C@@H](c2csc(C(C)(C)O)n2)CN1C(=O)c1cscc1-c1ncccn1 [Example 32, ((2R,5R)-5-(2-(2-hydroxypropan-2-yl)thiazol-4-yl)-2-methylpiperidin-1-yl)(4-(pyrimidin-2-yl)thiophen-3-yl)methanone] | > 10000 nM | 130 nM |
| C[C@@H]1CC[C@@H](c2nc(C(C)(C)O)cs2)CN1C(=O)c1ccccc1-n1nccn1 [Example 5] | 2250 nM | 17 nM |
| C[C@@H]1CC[C@@H](c2nc([C@@H](O)C(F)F)cs2)CN1C(=O)c1ccccc1-n1nccn1 [Example 8] | > 10000 nM | 133 nM |
| C[C@@H]1CC[C@@H](c2csc(C(C)(C)O)n2)CN1C(=O)c1ccsc1-n1nccn1 [Example 37, (2-(2H-1,2,3-Triazol-2-yl)thiophen-3-yl)((2R,5R)-5-(2-(2-hydroxypropan-2-yl)thiazol-4-yl)-2-methylpiperidin-1-yl)methanone] | 7200 nM | 16 nM |
| CCOC(=O)c1cnc([C@@H]2CC[C@@H](C)N(C(=O)c3ccccc3-n3nccn3)C2)s1 [Example 1, Ethyl 2-((3R,6R)-1-(2-(2H-1,2,3-triazol-2-yl)benzoyl)-6-methylpiperidin-3-yl)thiazole-5-carboxylate] | > 10000 nM | 1510 nM |
| Cc1sc([C@@H]2CC[C@@H](C)N(C(=O)c3ccccc3CS(C)(=O)=O)C2)nc1C(C)(C)O [Example 26, ((2R,5R)-5-(4-(2-Hydroxypropan-2-yl)-5-methylthiazol-2-yl)-2-methylpiperidin-1-yl)(2-((methylsulfonyl)methyl)phenyl)methanone] | > 10000 nM | 32 nM |
| C[C@@H]1CC[C@@H](c2nc(C(C)(C)O)cs2)CN1C(=O)c1cscc1-c1ncccn1 [Example 16, ((2R,5R)-5-(4-(2-hydroxypropan-2-yl)thiazol-2-yl)-2-methylpiperidin-1-yl)(4-(pyrimidin-2-yl)thiophen-3-yl)methanone] | 1000 nM | 25 nM |
| C[C@@H]1CC[C@@H](c2nc(C(C)(C)O)cs2)CN1C(=O)c1cscc1-n1nccn1 [Example 15, (4-(2H-1,2,3-Triazol-2-yl)thiophen-3-yl)((2R,5R)-5-(4-(2-hydroxypropan-2-yl)thiazol-2-yl)-2-methylpiperidin-1-yl)methanone] | > 10000 nM | 16 nM |
| C[C@@H]1CC[C@@H](c2csc(C(C)(C)O)n2)CN1C(=O)c1ccccc1-n1nccn1 [Example 36, (2-(2H-1,2,3-triazol-2-yl)phenyl)((2R,5R)-5-(2-(2-hydroxypropan-2-yl)thiazol-4-yl)-2-methylpiperidin-1-yl)methanone] | 2300 nM | 20 nM |
| Cc1sc([C@@H]2CC[C@@H](C)N(C(=O)c3ccccc3-c3ncccn3)C2)nc1C(C)(C)O [Example 23, ((2R,5R)-5-(4-(2-Hydroxypropan-2-yl)-5-methylthiazol-2-yl)-2-methylpiperidin-1-yl)(2-(pyrimidin-2-yl)phenyl)methanone] | 600 nM | 27 nM |
| Cc1sc([C@@H]2CC[C@@H](C)N(C(=O)c3ccccc3C3(C#N)CC3)C2)nc1C(C)(C)O [Example 25, 1-(2-((2R,5R)-5-(4-(2-Hydroxypropan-2-yl)-5-methylthiazol-2-yl)-2-methylpiperidine-1-carbonyl)phenyl)cyclopropanecarbonitrile] | 240 nM | 12 nM |
| C[C@@H]1CC[C@@H](c2nc([C@H](O)C(F)F)cs2)CN1C(=O)c1ccccc1-n1nccn1 [Example 9] | 520 nM | 9.4 nM |
| Cc1sc([C@@H]2CC[C@@H](C)N(C(=O)c3cscc3-n3nccn3)C2)nc1C(C)(C)O [Example 21, (4-(2H-1,2,3-triazol-2-yl)thiophen-3-yl)((2R,5R)-5-(4-(2-hydroxypropan-2-yl)-5-methylthiazol-2-yl)-2-methylpiperidin-1-yl)methanone] | 2800 nM | 30 nM |
| ((2R,5R)-5-(4-(2-Hydroxypropan-2-yl)-5- methylthiazol-2-yl)-2-methylpiperidin-1- yl)(2-(pyrimidin-2-yl)thiophen-3- yl)methanone [Example 27] | 700 nM | 87 nM |
| C[C@@H]1CC[C@@H](c2nc(C(C)(C)O)cs2)CN1C(=O)c1ccccc1-c1ncccn1 [Example 17, ((2R,5R)-5-(4-(2-Hydroxypropan-2-yl)thiazol-2-yl)-2-methylpiperidin-1-yl)(2-(pyrimidin-2-yl)phenyl)methanone] | 5470 nM | 29 nM |
| C[C@@H]1CC[C@@H](c2nc(C(C)(C)O)cs2)CN1C(=O)c1ccccc1-n1ncnn1 [Example 14, (2-(2H-Tetrazol-2-yl)phenyl)((2R,5R)-5-(4-(2-hydroxypropan-2-yl)thiazol-2-yl)-2-methylpiperidin-1-yl)methanone] | > 10000 nM | 21 nM |
